Test results as given in patent US9724397B2, “Sustained release formulations comprising very low molecular weight polymers” (IPSEN PHARMA S.A.S., priority 2006, dated 2017).

Assay: In-vivo release assay in Beagle dogs with a VLMW polymer not end-capped
Settings: 10% BIM21003 in PLGA 50/50 ended by carboxylic acid group (J001/3000013), intramuscular, about 3.6 mg per animal, RIA
Description: An in-vivo assay was performed with a semi-solid formulation of 10% BIM21003 using a PLGA 50/50 ended by a carboxylic acid group (J001/3000013 batch, see table 1). The preparation of the formulation was achieved by a push-pull kneading process with 2 syringes at about 50° C. as described in example 6. The mixture (bulk product) was conditioned in a 0.3 ml single-dose syringes coupled with 20×1.4 mm needles thereafter packed in individual aluminium sealed bags, and sterilized by gamma-irradiation at 25 kGy in dry ice.
Six male Beagle dogs were administered intramuscularly with single-dose syringes previously heated at 50° C. for 3 min in order to improve its fluidity and facilitate its injection. Syringes were weighted before and after administration, and the injected dose of BIM21003 was calculated to be about 3.6 mg per animal.
Four-ml blood samples were obtained from cephalic veins at specified time intervals post-administration. The blood samples were placed in tubes containing an anticoagulant (15% EDTA.K3 aqueous solution) and a preservative (Trasylol®). After centrifugation, plasma was removed and samples were stored below −20° C. until RIA analysis.

- BIM-21003 plasma levels after 3 days post-administration: below the limit of quantification
SMILES: CC(C)C[C@H](NC(=O)[C@@H](Cc1c[nH]c2ccccc12)NC(=O)[C@H](Cc1ccc(O)cc1)NC(=O)[C@H](CO)NC(=O)[C@H](Cc1c[nH]c2ccccc12)NC(=O)[C@H](Cc1c[nH]cn1)NC(=O)[C@@H]1CCC(=O)N1)C(=O)N[C@@H](CCCNC(=N)N)C(=O)N1CCC[C@H]1C(=O)NCC(N)=O [BIM-21003, triptorelin]
